Results on 22 molecules are retold here after patent US20260015325A1, “ALKOXY HETEROARYL- CARBOXAMIDE OR THIOAMIDE COMPOUNDS” (SYNGENTA CROP PROTECTION AG, priority 2022, published 2026).

Common to all, as to assay type: in vivo
Assay [1] concerns Tetranychus urticae (Two-Spotted Spider Mite). Kind of assay: whole plant or invertebrate. The following applies: foliar, 192 h, application rate of 200 ppm, mixed population (mobile stages) on sprayed bean leaf discs, 8 days after infestation, read-out: mortality. As to the method: Example B11: Tetranychus urticae (Two-Spotted Spider Mite): Feeding/Contact Activity
Bean leaf discs on agar in 24-well microtiter plates were sprayed with aqueous test solutions prepared from 10′000 ppm DMSO stock solutions. After drying the leaf discs were infested with a mite population of mixed ages. The samples were assessed for mortality on mixed population (mobile stages) 8 days after infestation.

For assay [2], the system named is Myzus persicae (Green Peach Aphid). Kind of assay: Myzus persicae (Green Peach Aphid): feeding/contact activity, sunflower leaf discs. The following applies: foliar, 144 h, application rate of 200 ppm, mixed ages on sprayed sunflower leaf discs, 6 days after infestation, read-out: mortality. As to the method:
Example B6: Myzus persicae (Green Peach Aphid): Feeding/Contact Activity
Sunflower leaf discs were placed onto agar in a 24-well microtiter plate and sprayed with aqueous test solutions prepared from 10′000 ppm DMSO stock solutions. After drying, the leaf discs were infested with an aphid population of mixed ages. The samples were assessed for mortality 6 days after infestation.

Assay [3] has the same test system. Kind of assay: Myzus persicae (Green Peach Aphid): intrinsic activity, sucrose solution. The following applies: 120 h, test rate of 12 ppm, intrinsic, mixed with sucrose solution under Parafilm, 5 days after infestation, read-out: mortality. The source says:
Example B8: Myzus persicae (Green Peach Aphid). Intrinsic Activity
Test compounds prepared from 10′000 ppm DMSO stock solutions were applied by pipette into 24-well microtiter plates and mixed with sucrose solution. The plates were closed with a stretched Parafilm. A plastic stencil with 24 holes was placed onto the plate and infested pea seedlings were placed directly on the Parafilm. The infested plate was closed with a gel blotting paper and another plastic stencil and then turned upside down. The samples were assessed for mortality 5 days after infestation.

The test system is the same in assay [4]. Kind of assay: Myzus persicae (Green Peach Aphid): systemic activity, pea seedlings. The conditions noted are these: 144 h, test rate of 24 ppm, systemic, roots of infested pea seedlings in test solution, 6 days, read-out: mortality. The procedure: Example B7: Myzus persicae (Green Peach Aphid). Systemic Activity
Roots of pea seedlings infested with an aphid population of mixed ages were placed directly into aqueous test solutions prepared from 10′000 DMSO stock solutions. The samples were assessed for mortality 6 days after placing seedlings into test solutions.

Assay [5] relates to Bemisia tabaci (Cotton White Fly). Kind of assay: Bemisia tabaci (Cotton White Fly): feeding/contact activity, cotton leaf discs. The following applies: foliar, 144 h, application rate of 200 ppm, adult white flies on sprayed cotton leaf discs, 6 days after incubation, read-out: mortality. As to the method:
Example B1: Bemisia tabaci (Cotton White Fly): Feeding/Contact Activity
Cotton leaf discs were placed on agar in 24-well microtiter plates and sprayed with aqueous test solutions prepared from 10′000 ppm DMSO stock solutions. After drying the leaf discs were infested with adult white flies. The samples were checked for mortality 6 days after incubation.

By mortality is commonly meant the percentage killed. For `C[C@@H](COc1cnc(Cl)c(C(=O)NC2CC2)c1)NS(=O)(=O)C(Cl)Cl` [Compound P-4, 2-chloro-N-cyclopropyl-5-[(2S)-2-(dichloromethylsulfonylamino)propoxy]pyridine-3-carboxamide], the mortality at 200 ppm in assay [1] and in assay [2] was no less than 80% throughout. Besides, the mortality at 12 ppm in assay [3] was no less than 80%.

Turning to `C[C@@H](COc1cnc(Cl)c(C(=O)NC2CC2)c1)NS(=O)(=O)C(F)F` [Compound P-10, 2-chloro-N-cyclopropyl-5-[(2S)-2-(difluoromethylsulfonylamino)propoxy]pyridine-3-carboxamide], the mortality at 24 ppm in assay [4] was no less than 80%. Further, in assay [1], the mortality at 200 ppm was no less than 80%. In addition, the mortality at 12 ppm in assay [3] is no less than 80%.

For `C[C@@H](COc1cnc(Cl)c(C(=O)NC(C)(C)C)c1)NS(=O)(=O)C(F)(F)F` [Compound P-11, N-tert-butyl-2-chloro-5-[(2S)-2-(trifluoromethylsulfonylamino)propoxy]pyridine-3-carboxamide], the mortality at 200 ppm in assay [1] and in assay [2] was no less than 80% each time. The mortality at 12 ppm in assay [3] is no less than 80%.

Take `O=C(NC1CC1)c1cc(OCCNS(=O)(=O)C(F)(F)F)cnc1Cl` [Compound P-17, 2-chloro-N-cyclopropyl-5-[2-(trifluoromethylsulfonylamino)ethoxy]pyridine-3-carboxamide]: the mortality at 200 ppm in assay [2] and in assay [5] was no less than 80% throughout. Further, in assay [3], the mortality at 12 ppm is no less than 80%.

As for `C[C@@H](COc1cnc(Cl)c(C(=O)Nc2ncc(Cl)cc2F)c1)NS(=O)(=O)C(F)(F)F` [Compound P-19, 2-chloro-N-(5-chloro-3-fluoro-2-pyridyl)-5-[(2S)-2-(trifluoromethylsulfonylamino)propoxy]pyridine-3-carboxamide], the mortality at 12 ppm in assay [3] is no less than 80%.

On to `Cc1cc(Cl)cnc1NC(=O)c1cc(OC[C@H](C)NS(=O)(=O)C(F)(F)F)cnc1Cl` [Compound P-20, 2-chloro-N-(5-chloro-3-methyl-2-pyridyl)-5-[(2S)-2-(trifluoromethylsulfonylamino)propoxy]pyridine-3-carboxamide], for which the mortality at 200 ppm in assay [1] and in assay [5] was no less than 80% in each case. The mortality at 12 ppm in assay [3] was no less than 80%.

Turning to `Cc1ncc(OC[C@H](C)NS(=O)(=O)C(F)(F)F)cc1C(=O)NC12CC(C1)C2` [Compound P-26, N-(1-bicyclo[1.1.1]pentanyl)-2-methyl-5-[(2S)-2-(trifluoromethylsulfonylamino)propoxy]pyridine-3-carboxamide], the mortality at 24 ppm in assay [4] is no less than 80%. For the same molecule, the mortality at 200 ppm in assay [1] and in assay [2] was no less than 80% throughout. Besides, the mortality at 12 ppm in assay [3] is no less than 80%.

For the molecule `Cc1ncc(OC[C@H](C)NS(=O)(=O)C(F)(F)F)cc1C(=O)NCc1ccc(Cl)cn1` [Compound P-28, N-[(5-chloro-2-pyridyl)methyl]-2-methyl-5-[(2S)-2-(trifluoromethylsulfonylamino)propoxy]pyridine-3-carboxamide], the mortality at 24 ppm in assay [4] was no less than 80%. Besides, the mortality at 200 ppm in assay [5] is no less than 80%.

Take `Cc1ncc(OC[C@H](C)NS(=O)(=O)C(F)(F)F)cc1C(=O)NC(C)C1CC1` (stereo partly drawn) [Compound P-31, N-(1-cyclopropylethyl)-2-methyl-5-[(2S)-2-(trifluoromethylsulfonylamino)propoxy]pyridine-3-carboxamide]: the mortality at 200 ppm in assay [1] and in assay [5] was no less than 80% in each case.

Turning to `CC(NC(=O)c1cc(OC[C@H](C)NS(=O)(=O)C(F)(F)F)cnc1Cl)C1CC1` (stereo partly drawn) [Compound P-45, 2-chloro-N-(1-cyclopropylethyl)-5-[(2S)-2-(trifluoromethylsulfonylamino)propoxy]pyridine-3-carboxamide], the mortality at 200 ppm in assay [1] and in assay [2] was no less than 80% each time. The mortality at 12 ppm in assay [3] is no less than 80%.

`C[C@@H](COc1cnc(Cl)c(C(=O)NCC2(C#N)CC2)c1)NS(=O)(=O)C(F)(F)F` [Compound P-46, 2-chloro-N-[(1-cyanocyclopropyl)methyl]-5-[(2S)-2-(trifluoromethylsulfonylamino)propoxy]pyridine-3-carboxamide]: the mortality at 200 ppm in assay [2] and in assay [5] was no less than 80% in each case.

In the case of `CCN1OC[C@H](NC(=O)c2cc(OC[C@H](C)NS(=O)(=O)C(F)(F)F)cnc2Cl)C1=O` [Compound P-49, 2-chloro-N-[(4S)-2-ethyl-3-oxo-isoxazolidin-4-yl]-5-[(2S)-2-(trifluoromethylsulfonylamino)propoxy]pyridine-3-carboxamide], the mortality at 200 ppm in assay [1] and in assay [2] was no less than 80% each time.

Take `C#CCNC(=O)c1cc(OC[C@H](C)NS(=O)(=O)C(F)(F)F)cnc1Cl` [Compound P-52, 2-chloro-N-prop-2-ynyl-5-[(2S)-2-(trifluoromethylsulfonylamino)propoxy]pyridine-3-carboxamide]: the mortality at 200 ppm in assay [1], in assay [2] and in assay [5] was no less than 80% throughout.

Consider `C[C@@H](COc1cnc(Cl)c(C(=O)NCC(F)F)c1)NS(=O)(=O)C(F)(F)F` [Compound P-55, 2-chloro-N-(2,2-difluoroethyl)-5-[(2S)-2-(trifluoromethylsulfonylamino)propoxy]pyridine-3-carboxamide], for which the mortality at 200 ppm in assay [2] was no less than 80%. In assay [3], the mortality at 12 ppm was no less than 80%.

On to `C[C@@H](COc1cnc(Cl)c(C(=O)Nc2ccccc2)c1)NS(=O)(=O)C(F)(F)F` [Compound P-56, 2-chloro-N-phenyl-5-[(2S)-2-(trifluoromethylsulfonylamino)propoxy]pyridine-3-carboxamide], for which the mortality at 200 ppm in assay [1] and in assay [5] was no less than 80% throughout.

In the case of `Cc1cnc(OC[C@H](C)NS(=O)(=O)C(F)(F)F)cc1C(=O)NC1CCN(CC(F)(F)F)C1=O` (stereo partly drawn) [Compound P-70, 5-methyl-N-[2-oxo-1-(2,2,2-trifluoroethyl)pyrrolidin-3-yl]-2-[(2S)-2-(trifluoromethylsulfonylamino)propoxy]pyridine-4-carboxamide], the mortality at 200 ppm in assay [2] and in assay [5] was no less than 80% throughout.

Turning to `CCN1OC[C@@H](NC(=O)c2cc(OC[C@H](C)N(COC)S(=O)(=O)C(F)(F)F)ncc2C)C1=O` [Compound P-78, N-[(4R)-2-ethyl-3-oxo-isoxazolidin-4-yl]-2-[(2S)-2-[methoxymethyl(trifluoromethylsulfonyl)amino]propoxy]-5-methyl-pyridine-4-carboxamide], the mortality at 200 ppm in assay [1] and in assay [2] was no less than 80% throughout.

Turning to `COCN([C@@H](C)COc1cc(C(=O)NC2CC2)c(Br)cn1)S(=O)(=O)C(F)(F)F` [Compound P-81, 5-bromo-N-cyclopropyl-2-[(2S)-2-[methoxymethyl(trifluoromethylsulfonyl)amino]propoxy]pyridine-4-carboxamide], the mortality at 12 ppm in assay [3] is no less than 80%.

With `COCN([C@@H](C)COc1cc(C(=O)NC2(C#N)CC2)c(Br)cn1)S(=O)(=O)C(F)(F)F` [Compound P-82, 5-bromo-N-(1-cyanocyclopropyl)-2-[(2S)-2-[methoxymethyl(trifluoromethylsulfonyl)amino]propoxy]pyridine-4-carboxamide], the mortality at 200 ppm in assay [1] and in assay [5] was no less than 80% throughout.

With `C[C@@H](COc1cc(C(=O)NC2CC2)c(Br)cn1)NS(=O)(=O)C(F)(F)F` [Compound P-83, 5-bromo-N-cyclopropyl-2-[(2S)-2-(trifluoromethylsulfonylamino)propoxy]pyridine-4-carboxamide], the mortality at 24 ppm in assay [4] is no less than 80%. In assay [2], the mortality at 200 ppm was no less than 80%. In addition, the mortality at 12 ppm in assay [3] is no less than 80%.

Take `C[C@@H](COc1cc(C(=O)NC2(C#N)CC2)c(Br)cn1)NS(=O)(=O)C(F)(F)F` [Compound P-86, 5-bromo-N-(1-cyanocyclopropyl)-2-[(2S)-2-(trifluoromethylsulfonylamino)propoxy]pyridine-4-carboxamide]: in assay [5], the mortality at 200 ppm is no less than 80%.

For the molecule `C[C@@H](COc1cc(C(=O)NC2CC2)c(Cl)cn1)NS(=O)(=O)C(F)(F)F` [Compound P-87, 5-chloro-N-cyclopropyl-2-[(2S)-2-(trifluoromethylsulfonylamino)propoxy]pyridine-4-carboxamide], the mortality at 200 ppm in assay [1] and in assay [2] was no less than 80% in each case. Further, in assay [3], the mortality at 12 ppm is no less than 80%.
